From PMC8744131, “Dimensionless parameter predicts bacterial prodrug success” (Molecular Systems Biology, 2022)
≈ marks a conversion by molar mass, not a printed value. Like-named read-outs stand apart in the source and are kept apart here. Where no end group is shown, it is not given here. The star is where a group is joined. 5FAM = O=C1OC2(c3ccc(O)cc3Oc3cc(O)ccc32)c2ccc(C(=O)*)cc21; Dabcyl = CN(C)c1ccc(N=Nc2ccc(C(=O)*)cc2)cc1

Assays:
[1] = test system: UTI89 E. coli; test: Bacterial toxicity of TMP and TM-TMP (CFU / MIC); type: cell-based
Text: Just as with our earlier experiments, we measured (i) the number of bacteria and (ii) the number of drug molecules consumed in each killing reaction to calculate the parameters a and b, respectively (Fig EV8).

[2] = test system: OmpT expressed on the surface of E. coli K‐12 BW25113; test: Cleavage assay with OmpT expressed on the surface of E. coli; type: biochemical; details: 37°C, n = 3
Text: To measure OmpT activity, we synthesized an activity probe (McCarter et al, [2004]; Kwong et al, [2013], [2021]; Holt et al, [2017], [2018]; Mac et al, [2019]; Zhuang et al, [2019]) with free linker peptides containing a fluorophore‐quencher pair, which produced an increase in fluorescence upon proteolytic cleavage.
(§1) Positive control for AMP toxicity (black bar).

[3] = molecular target: OmpT on DH5α E. coli (Escherichia coli, UniProt P09169)
Text: (§2) This allowed us to more rigorously test the model by predicting bacteria‐prodrug response curves across nine distinct combinations of kcat and r values before performing the physical experiments. We experimentally controlled the nine distinct combinations of kcat and r values by altering the ambient temperature and concentration of broth (conditions labeled A1–3, B1–3, and C1–3; Table EV3). We affected the enzymatic activation rate of the prodrug, kcat, by changing temperature as described by the Arrhenius equation (Calvert, [1990]). […] To experimentally validate this, we incubated bacteria with AMP prodrug under the defined nine conditions and quantified the number of living bacteria longitudinally over the course of a 24‐h treatment window.
Figure EV2 Calculating bacterial growth rate and enzymatic activity in the AMP prodrug system • Schematic of the simplified model that only includes bacteria and a substrate probe, which was used to quantify r and kcat from bacterial cleavage assays. • Bacterial cleavage assays (blue line) where we are measuring the increase in fluorescence from the cleavage of the fluor‐quencher substrate probe over time. Bacteria and fluor‐quencher probe are incubated together for 12 h. Then, we fit a simplified model to the results, which is plotted as the dashed line. Each panel is labeled with the environmental condition as described in Table EV3 and correlating with Fig 4.
Table EV3. Additional information for experimental conditions. This information includes incubation temperature (second column from left), the concentration of LB broth by volume (third column from left), growth rate, r (fourth column from left), enzyme catalytic turnover, kcat (fifth column from left), and the bacterial advantage heuristic, BAH (sixth column from left).

[4] = test system: DH5α E. coli; test: Short-time drug dosing experiment with free AMP for a and b; type: cell-based; details: DH5a + AMP prodrug model; from free AMP dosing, t < 10 min, n = 3
Protocol: Experiment was taken at a short time interval (t < 10 min) so we could calculate the number of bacteria and drug copies consumed in each killing reaction.

[5] = test system: DH5α E. coli; test: Bacterial Advantage Heuristic (BAH) / model, AMP prodrug system
Text: as §2

[6] = molecular target: OmpT (Escherichia coli, UniProt P09169); details: Fig EV5B, text printed in picture
Text: as §2

[7] = test system: DH5α E. coli; test: Bacteria viability assay, AMP prodrugs with TEV protease or inhibitor; type: cell-based; details: CFU, n = 3–4
[8] = test system: OmpT; details: micromolar concentrations; ref Brannon et al, 2015; cited from earlier work
Text: To validate the predictions of our mathematical model with an in vitro bacteria‐activated prodrug system, we synthesized a protease‐activated AMP prodrug. This AMP prodrug comprised cationic (polyarginine, R9) antimicrobial peptides (AMP) in charge complexation with anionic peptide locks (polyglutamic acid, E13) by a linker peptide (RRS|RRV) specific for the ubiquitous bacterial protease OmpT (Olson et al, [2009]; preprint: Holt et al, [2019]). Upon proteolytic cleavage of the linker, the hairpin prodrug is unlocked to release free AMP (Fig 3A). To measure OmpT activity, we synthesized an acti ...

[9] = test system: DH5α E. coli; test: Bacteria viability assay (CFU), AMP system; type: cell-based
Protocol: as §1
Figure EV4 Parent drug control for all conditions in AMP prodrug system Parent drug (R9, polyarginine) controls for conditions testing different media conditions and temperatures in the AMP prodrug studies.
DH5α Escherichia coli were a gift from Todd Sulchek's BioMEMS lab at Georgia Tech. E. coli were cultured in LB broth (Lennox) at 37°C and plated on LB agar (Lennox) plates. LB broth was purchased from Millipore Sigma (Burlington, MA) and LB agar was purchased from Invitrogen (Carlsbad, CA). AMP and locked AMP were custom ordered from Genscript (Piscataway, NJ). See Table EV1 for more information. Bacteria were grown to a concentration of 10^9 CFU/ml before being used for experiments. Concentration was estimated by measuring the OD600 of the bacterial suspension, and assuming an OD600 of 1.000 corresponds to a concentration of 8 × 10^8 CFU/ml. Bacterial cell viability was measured by making eight 10‐fold serial dilutions, and plating three 10‐µl spots on an LB agar plate. Plates were incubated overnight at 37°C, and CFUs were counted. Untreated bacteria CFU counts served as control for 0% cytotoxicity, and bacteria + IPA (or 0 countable CFUs) served as control for 100% cytotoxicity.

OmpT on DH5α E. coli, sequence (P09169 21-317): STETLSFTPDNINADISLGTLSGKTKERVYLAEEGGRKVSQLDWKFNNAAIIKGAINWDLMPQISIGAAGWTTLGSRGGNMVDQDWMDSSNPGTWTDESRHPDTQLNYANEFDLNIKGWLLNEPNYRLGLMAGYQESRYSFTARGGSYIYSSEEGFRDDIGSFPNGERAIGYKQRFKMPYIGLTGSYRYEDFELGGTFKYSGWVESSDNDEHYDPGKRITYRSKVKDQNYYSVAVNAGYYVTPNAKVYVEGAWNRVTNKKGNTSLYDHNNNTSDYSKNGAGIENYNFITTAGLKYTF
OmpT (Escherichia coli, UniProt P09169), sequence (P09169 21-317): as above

COc1cc(Cc2cnc(N)nc2N)cc(OC)c1OC [TMP, trimethoprim]
change in number of bacteria killed on adding GSH ([1]; 5 mM GSH vs no GSH, surviving CFU): did not significantly change | efficiency at killing bacteria vs TM-TMP ([1]; 37°C, 75% broth, n = 3): significantly more efficient at killing UTI89 bacteria | MIC ([1]; Escherichia coli, 37°C, 75% broth, n = 3, read-out: minimum inhibitory concentration (MIC)): 3.2 µM (≈ 0.929 µg/mL)

Dabcyl-RRSRRVK(5FAM) [OmpT Probe, free linker peptide RRSRRV with fluorophore-quencher pair]
linker specificity: cleavage activity by parent strain vs OmpT knockout ([2]; OmpT-positive E. coli K‐12 BW25113 vs OmpT genetic knockout, fluorescence 485/528 nm, 60–120 min): only observed activity in samples incubated with the parent strain (i.e., OmpT‐positive) | cleavage activity in presence of aprotinin ([2]; recombinant OmpT or E. coli surface OmpT with aprotinin, fluorescence): no activity in samples containing the serine protease inhibitor, Aprotinin

EEEEEEEEEEEEERRSRRVRRRRRRRRR [Locked AMP (linker 1), R9 antimicrobial peptide locked by E13 via OmpT-cleavable linker RRSRRV; default locked AMP]
kcat ([3]; condition A1: 37 °C, 0% LB broth, r 0.1 h^-1): 25 h^-1 x 10^10 | kcat ([3]; condition A2: 30 °C, 2% LB broth, r 0.14 h^-1): 13.6 h^-1 x 10^10 | kcat ([3]; condition A3: 37 °C, 2% LB broth, r 0.3 h^-1): 22 h^-1 x 10^10 | kcat ([3]; condition B1: 37 °C, 4% LB broth, r 0.5 h^-1): 15 h^-1 x 10^10 | kcat ([3]; condition B2: 37 °C, 6% LB broth, r 0.85 h^-1): 13.6 h^-1 x 10^10 | kcat ([3]; condition B3: 37 °C, 20% LB broth, r 2.2 h^-1): 1 h^-1 x 10^10 | kcat ([3]; condition C1: 30 °C, 20% LB broth, r 1.4 h^-1): 5.2 h^-1 x 10^10 | kcat ([3]; condition C2: 30 °C, 66% LB broth, r 1.6 h^-1): 4 h^-1 x 10^10 | kcat ([3]; condition C3: 37 °C, 66% LB broth, r 3 h^-1): 6 h^-1 x 10^10 | a, bacterial death rate constant [4]: 1e-13 µL/h | b, drug decay rate constant [4]: 0.02 µL/h | ratio of a to b [5]: 0.5 × 10^−11 | catalytic efficiency kcat/Km (rank in words) [6]: High | elimination of bacteria ([7]; OmpT-specific locked AMP alone, natively expressed OmpT): elimination of bacteria

EEEEEEEEENLYFQGRRRRRRRR [Locked AMP (linker 3), AMP prodrug with linker ENLYFQG, specific to TEV protease]
catalytic efficiency kcat/Km (rank in words) [6]: Lowest | reduction of bacteria load ([7]; TEV-specific locked AMP alone (no TEV protease)): did not significantly reduce bacteria load | elimination of bacteria ([7]; TEV-specific locked AMP plus TEV protease): elimination of bacteria

aprotinin [reference compound]
inhibition of OmpT [8]: inhibits OmpT when present in micromolar concentrations | reduction of bacteria load ([7]; control with OmpT inhibitor aprotinin plus OmpT-specific locked AMP): did not significantly reduce bacteria load

polyarginine [free AMP]
reduction in colonies vs untreated controls ([9]; free AMP, CFU, n = 3–4 biological replicates, one-way ANOVA): significant reduction in colonies compared to untreated controls | treatment success ([9]; nine conditions A1–C3 (30/37 °C, 0–66% LB broth), 24 h, serial CFU, n = 3): successfully treated bacteria in all nine conditions tested
